Converted amounts (≈) assume the structure as drawn.
Tests used:
Test in all cases: ≥ marks a high value that may be exact or a test limit, other limits are often not marked, values filed in µg/mL are converted to µM
[1] = system: Staphylococcus aureus NCTC 8325
[2] = system: Escherichia coli ATCC 25922
[3] = system: Candida albicans ATCC 90028
[4] = system: Staphylococcus aureus ATCC 25923
[5] = system: Escherichia coli ATCC 25726
[6] = system: Staphylococcus aureus ATCC 29213
[7] = system: Staphylococcus epidermidis
[8] = system: Listeria innocua
[9] = system: Bacillus cereus
[10] = system: Leuconostoc lactis
[11] = system: Streptococcus uberis
[12] = system: Micrococcus luteus
[13] = system: Escherichia coli MG1655
[14] = system: Pseudomonas aeruginosa PAO1
[15] = system: Candida albicans

CC[C@H](C)[C@@H]1NC(=O)[C@H](C)NC(=O)[C@@H](NC(=O)[C@H](Cc2ccccc2)NC(=O)[C@@H](NC(=O)[C@H](CCCCN)NC(=O)[C@@H]2CCCN2C(=O)[C@H](CC(C)C)NC(=O)[C@H](Cc2ccccc2)NC(=O)[C@H](CCCCN)NC(=O)[C@H](C)NC(=O)[C@H](C)NC(=O)[C@@H](NC(=O)CNC(=O)[C@H](C)NC(=O)[C@@H](NC(=O)[C@@H](NC(=O)[C@@H]2CCCN2C(=O)[C@H](CC(C)C)NC(=O)[C@@H](N)Cc2ccccc2)C(C)C)[C@@H](C)CC)C(C)C)[C@@H](C)CC)CSSC[C@@H](C(=O)O)NC(=O)[C@H](CCCCN)NC(=O)[C@H](CCCCN)NC(=O)[C@H]([C@@H](C)O)NC1=O [FLPVIAGVAAKFLPKIFCAITKKC]
MIC [1]: 4 µM (≈ 10.3 µg/mL)
MIC [2]: 7 µM (≈ 18 µg/mL)
MIC [3]: 8 µM (≈ 20.6 µg/mL)

CC[C@H](C)[C@H](NC(=O)CNC(=O)[C@H](CC(N)=O)NC(=O)[C@H](CC(C)C)NC(=O)[C@H](CC(C)C)NC(=O)[C@H](CCCCN)NC(=O)CNC(=O)[C@@H](NC(=O)[C@@H](NC(=O)[C@@H]1CCCN1C(=O)[C@H](CC(C)C)NC(=O)[C@@H](NC(=O)[C@@H](NC(=O)[C@@H]1CCCN1C(=O)[C@H](CC(C)C)NC(=O)[C@@H](N)Cc1ccccc1)C(C)C)[C@@H](C)CC)C(C)C)[C@@H](C)CC)C(=O)N[C@@H](CC(C)C)C(N)=O [FLPVILPVIGKLLNGIL]
MIC [1]: 25 µM (≈ 45.5 µg/mL)
MIC [2]: > 50 µM
MIC [3]: ≥ 50 µM

CC[C@H](C)[C@H](NC(=O)[C@H](C)NC(=O)CN)C(=O)N[C@@H](CCCCN)C(=O)N[C@@H](CC(=O)O)C(=O)N[C@@H](C)C(=O)N[C@@H](CC(C)C)C(=O)N[C@@H](CCCCN)C(=O)NCC(=O)N[C@@H](C)C(=O)N[C@@H](C)C(=O)N[C@@H](CCCCN)C(=O)N[C@H](C(=O)N[C@H](C(=O)N[C@@H](C)C(=O)N[C@H](C(=O)N[C@@H](CCC(=O)O)C(=O)N[C@@H](CC(C)C)C(=O)N[C@@H](CC(C)C)C(=O)N[C@@H](CCCCN)C(=O)N[C@@H](CCCCN)C(=O)N[C@@H](C)C(=O)N[C@@H](CCC(N)=O)C(=O)N[C@H]1CSSC[C@@H](C(=O)O)NC(=O)[C@H]([C@@H](C)O)NC(=O)[C@H](CCCCN)NC(=O)[C@H](CCC(=O)O)NC(=O)[C@H](CC(C)C)NC(=O)[C@H](CCCCN)NC1=O)C(C)C)C(C)C)[C@@H](C)O [GAIKDALKGAAKTVAVELLKKAQCKLEKTC]
MIC [4]: 20 µM (≈ 62.5 µg/mL)
MIC [5]: 20 µM (≈ 62.5 µg/mL)

CC(C)C[C@H](NC(=O)[C@H](CC(C)C)NC(=O)[C@H](CC(N)=O)NC(=O)[C@H](C)NC(=O)CNC(=O)[C@H](Cc1ccccc1)NC(=O)[C@H](CCCCN)NC(=O)[C@H](CC(C)C)NC(=O)[C@H](C)NC(=O)[C@H](CCCCN)NC(=O)CNC(=O)[C@H](CC(C)C)NC(=O)[C@@H](NC(=O)[C@H](CO)NC(=O)CNC(=O)[C@H](Cc1ccccc1)NC(=O)CN)C(C)C)C(N)=O [GFGSVLGKALKFGANLL]
MIC [4]: 12.5 µM (≈ 21.1 µg/mL)
MIC [5]: ≥ 50 µM

CC[C@H](C)[C@H](NC(=O)CNC(=O)[C@H](Cc1ccccc1)NC(=O)[C@H](CC(C)C)NC(=O)CN)C(=O)N[C@@H](CC(C)C)C(=O)NCC(=O)N[C@@H](CO)C(=O)N[C@H](C(=O)N[C@@H](C)C(=O)N[C@@H](CCCCN)C(=O)N[C@@H](Cc1cnc[nH]1)C(=O)N[C@H](C(=O)N[C@@H](CC(C)C)C(=O)N1CCC[C@H]1C(=O)N[C@@H](Cc1cnc[nH]1)C(=O)N[C@H](C(=O)N[C@H](C(=O)N1CCC[C@H]1C(=O)N[C@H](C(=O)N[C@H](C(=O)N[C@@H](C)C(=O)N[C@@H](CCC(=O)O)C(=O)N[C@@H](Cc1cnc[nH]1)C(=O)N[C@@H](CC(C)C)C(N)=O)C(C)C)C(C)C)[C@@H](C)CC)C(C)C)C(C)C)C(C)C [GLFGILGSVAKHVLPHVIPVVAEHL]
MIC [6]: 9.6 µM (≈ 25 µg/mL)
MIC [7]: 9.6 µM (≈ 25 µg/mL)
MIC [8]: 9.6 µM (≈ 25 µg/mL)
MIC [4]: 19.2 µM (≈ 50 µg/mL)
MIC [9]: ≥ 38.4 µM
MIC [10]: 9.6 µM (≈ 25 µg/mL)
MIC [11]: 19.2 µM (≈ 50 µg/mL)
MIC [12]: 7.68 µM (≈ 20 µg/mL)

CC[C@H](C)[C@H](NC(=O)[C@H](C)NC(=O)[C@H](CC(=O)O)NC(=O)[C@H](CC(C)C)NC(=O)[C@H](CC(C)C)NC(=O)CN)C(=O)N[C@@H](CCCCN)C(=O)N[C@@H](CC(=O)O)C(=O)N[C@H](C(=O)N[C@@H](C)C(=O)N[C@@H](CCC(N)=O)C(=O)N[C@@H](CC(N)=O)C(=O)N[C@@H](CC(C)C)C(=O)N[C@@H](Cc1ccccc1)C(=O)N[C@@H](C)C(=O)N[C@@H](CC(N)=O)C(=O)N[C@H](C(=O)N[C@@H](CC(C)C)C(=O)N[C@@H](CC(=O)O)C(=O)N[C@@H](CCCCN)C(=O)N[C@H](C(=O)N[C@@H](CCCCN)C(=O)N[C@H]1CSSC[C@@H](C(=O)O)NC(=O)[C@H](CCCCN)NC(=O)[C@H]([C@@H](C)O)NC(=O)[C@H](Cc2ccccc2)NC(=O)[C@H](CCCCN)NC1=O)[C@@H](C)CC)C(C)C)[C@@H](C)O [GLLDAIKDTAQNLFANVLDKIKCKFTKC]
MIC [1]: ≥ 50 µM
MIC [2]: 50 µM (≈ 155 µg/mL)
MIC [3]: ≥ 50 µM

CC[C@H](C)[C@H](NC(=O)[C@H](CCC(=O)O)NC(=O)[C@H](CO)NC(=O)[C@H](C)NC(=O)[C@H](CC(C)C)NC(=O)[C@H](C)NC(=O)[C@H](CCC(N)=O)NC(=O)CNC(=O)[C@H](Cc1ccccc1)NC(=O)[C@H](CCCCN)NC(=O)[C@H](CCCCN)NC(=O)[C@H](C)NC(=O)[C@H](CO)NC(=O)[C@H](Cc1cnc[nH]1)NC(=O)[C@H](CC(C)C)NC(=O)[C@H](Cc1ccccc1)NC(=O)[C@H](CCCCN)NC(=O)CNC(=O)[C@@H](NC(=O)CN)C(C)C)C(=O)N[C@@H](CCSC)C(=O)N[C@@H](CCCCN)C(=O)N[C@@H](CO)C(=O)O [GVGKFLHSAKKFGQALASEIMKS]
MIC [4]: > 100 µM
MIC [5]: ≥ 100 µM

CC[C@H](C)[C@H](N)C(=O)N[C@H](C(=O)N[C@@H](CCC(=O)O)C(=O)N[C@@H](CCCCN)C(=O)N[C@@H](CC(C)C)C(=O)N[C@H](C(=O)N[C@@H](CC(N)=O)C(=O)N[C@H](C(=O)N[C@@H](C)C(=O)N[C@@H](CC(C)C)C(=O)NCC(=O)N[C@@H](CC(C)C)C(=O)N[C@@H](CC(C)C)C(=O)N[C@@H](CO)C(=O)NCC(=O)N[C@@H](CC(C)C)C(N)=O)[C@@H](C)O)C(C)C)[C@@H](C)CC [IIEKLVNTALGLLSGL]
MIC [10]: 25 µM (≈ 41.3 µg/mL)

CSCC[C@H](NC(=O)[C@@H](NC(=O)[C@@H](N)CCCCN)C(C)C)C(=O)N[C@@H](CCCN=C(N)N)C(=O)N[C@@H](CCC(=O)O)C(=O)N[C@H](C(=O)N[C@@H](CC(C)C)C(=O)NCC(=O)N[C@@H](Cc1ccc(O)cc1)C(=O)N[C@@H](CCC(=O)O)C(=O)N[C@@H](CCCN=C(N)N)C(=O)N[C@@H](CC(N)=O)C(=O)N[C@@H](CO)C(=O)N[C@@H](Cc1ccc(O)cc1)C(=O)N[C@@H](CCCCN)C(=O)N[C@@H](CCCCN)C(=O)N[C@@H](Cc1ccccc1)C(=O)N[C@@H](Cc1ccccc1)C(=O)N[C@@H](CC(C)C)C(=O)N[C@@H](CCCN=C(N)N)C(N)=O)C(C)C [KVMREVLGYERNSYKKFFLR]
MIC [13]: ≥ 128 µM
MIC [4]: > 128 µM
MIC [14]: > 128 µM
MIC [15]: 128 µM (≈ 328 µg/mL)

Reference: DBAASP
